# Several values for one entry are separate records, joined by “and”; a condition that tells them apart may be missing. Equal values may be shown once.
# How the values were obtained:
# HLA-A2 = target: T1, HLA-A2 (Homo sapiens, UniProt P04439, D140Y/D185E/D98H/E176V/E277Q/G131W/G231S/I119V/I121R/I166T/I218V/L300P/L318F/N151K/N90K/P208A/P217A/Q86G/Q94H/R138H/R169H/T345S); experiment: Peptide-binding assay: stabilization of HLA-A2 on the surface of T2 cells, compared to PR1
# T1 construct: measure HLA-A2.1 surface expression on the A2+ T2 cell line coated with the peptide; host or cells: T2 cells
# Description: (§1) Nonameric peptides derived from cyclin E1 and cyclin E2 and predicted to bind to the HLA-A2 allele have similar amino acid sequences, differing only at position 7. Thus, the binding of CCNE1144-152 (cyclin E1 derived) and CCNE2144-152 (cyclin E2 derived) was compared to that of PR1 by a peptide-binding assay. The ability of CCNE1144-152 and CCNE2144-152 to stabilize HLA-A2 on the surface of T2 cells was almost the same as that of PR1 (FI CCNE1144-152/FI PR1=1.008, FI CCNE2144-152/FI PR1=1.189). […] In 3 of 7 donors, CCNE1144-152-stimulated CTL lines killed both CCNE1144-152 and CCNE 2144-152-pulsed T2 cells but not non-peptide-pulsed T2 cells and irrelevant peptide-pulsed T2 cells. In 4 of 7 same donors, CCNE2144-152-stimulated CTL lines killed both CCNE2144-152 and CCNE1144-152-pulsed T2 cells but not non-peptide-pulsed T2 cells and irrelevant peptide-pulsed T2 cells.
# peptide-pulsed T2 cells = experiment: Elicitation of cyclin E peptide-specific CTL with peptide-pulsed T2 cells; assay type: cell-based, human; conditions: PBMCs from 7 HLA-A2 positive normal donors
# Description: as §1
# [1] = system: HLA-A2 transfected K562 leukemic cell line; experiment: Killing of leukemic cell line by CCNE1 peptide-stimulated CTL lines; assay type: cell-based, human
# Description: Thus, each peptide-specific CTLs can recognize both peptides with HLA-A2, but the immunogenicity of each peptide is different between individuals. Moreover, one of 4 CCNE1144-152-stimulated CTL lines which killed CCNE1144-152-pulsed T2 cell killed HLA-A2 transfected K562 leukemic cell line which is over-expressing cyclin E1 protein, but not non-transfected K562 leukemic cell line. Thus, CCNE1144-152-specific CTL can distinguish leukemic cell lines from normal PBMCs. From the data, it was concluded that cyclin E1/E2 derived peptides are potential tumor-antigens, because 1) cyclin E1/E2 are highly over-expressed in hematological malignancy, 2) cyclin E1/E2 peptides can sufficiently bind to HLA-A2 to stimulate CTL and 3) CCLE1144-152 specific CTL preferentially kills leukemic cell lines HLA-A2 restrictively.
# [2] = system: PR1-CTL from a healthy donor; experiment: Annexin V apoptosis of PR1-CTL challenged with peptide-pulsed T2 cells; assay type: cell-based, human; conditions: for apoptosis of high avidity PR1-CTL: T2 cells pulsed with 20 μM peptide, Annexin V 16 to 18 hr
# Description: High PR1 concentration and proteinase 3-overexpressing CML cells induce apoptosis of high avidity PR1-specific CTL. […] All high avidity PR1-CTL exposed to high dose PR1 were dead after 36 to 48 hr of co-culture.
# [3] = system: P3-HMy.CIR-A2 target cells; experiment: Proliferation (BrDU incorporation) of PR1-specific CTL lines with P3-transfected B cells; assay type: cell-based, human; conditions: CTL lines from two healthy donors
# Description: (§2) The leukemia-associated antigen PR1 is derived from both proteinase 3 and neutrophil elastase proteins. The inventors have shown that killing of leukemia cells by PR1-specific CTL correlates with P3 overexpression. However, the PR1 sequence is also contained within neutrophil elastase (NE), which is also aberrantly expressed in leukemia cells. To determine whether PR1 is processed and presented from either protein, P3- and NE-transfected B cells were used as target cells in a proliferation assay with PR1-specific T cells. Full-length P3 and NE cDNA was cloned from the promyelocytic HL-60 cell line based on published sequences. The sequences were subcloned into an EGFP-containing vector (pCMS-EGFP) with a CMV promoter to drive constitutive expression. The B cell line, HMy-CIR, previously stably transfected with the HLA-A*0201 gene, was transfected with P3-pCMS-EGFP and NE-pCMS-EGFP by electroporation for 24 hr. GFP-expressing cells (P3-HMy.CIR-A2 and NE-HMy.CIR-A2, respectively) were selected by FACSorting and high transfection levels were confirmed by fluorescence microscopy. […] By contrast, NE transcript numbers from a transfected clone were 7-fold less than in HL-60 cells. Western blotting confirmed protein expression in the NE-HMy.CIR-A2-transfected cells, although expression was similarly less than in HL-60 cells. […]
# [4] = system: HMy2.CIR-A2 cells transfected with Pr3; experiment: Lysis of Pr3-transfected B cells by PR1 specific CTL; assay type: cell-based, human; conditions: E:T 25:1
# Experimental: Expression of proteinase 3 following transfection into and HMy2.CIR and HMy2.CIR-A2 cells. […] The parental HMy2.CIR cell line, which has lost expression of HLA-A and -B, and the HLA-A2.1-transfected HMy2.CIR cells (named HMy2.CIR-A2), were both transfected with Pr3 as described below.
# Ten million HMy2.CIR (ATCC, Rockville, Md.), or 10 million HMy2.CIR-A2 cells were each washed in phosphate buffered saline (PBS) and re-suspended in 0.8 mL of ice-cold PBS and put into an electroporation cuvette with 20 μg of circular plasmid DNA. The mixture was exposed to an electric pulse of 320 volts at 960 microF and incubated on ice for 10 min. Cells were then added to 10 mL of pre-warmed CM. The following day, the CM was replaced. On day 2, cells were grown under selection conditions using 200 μg/mL Zeocin. Following one week of selection, the cells were subcloned by limiting dilution under Zeocin selection, and 6 clones were isolated.
# HMy.2.CIR-A2 cells transfected with Pr3 are susceptible to lysis by PR1 specific CTL. It was next determined whether the transfected HMy2.CIR-A2 cells could be lysed by PR1 specific CTL. The PR1 specific CTL were elicited in the manner previously described, and after 22 days in culture were combined at a 25:1 E:T ratio with HMy2.CIR-A2 transfected either with the Pr3-containing vector pRTZ.2, or the empty vector containing the reporter gene, CAT. […]
# NE-HMy.CIR-A2 = experiment: Proliferation (BrDU incorporation) of PR1-specific CTL lines with NE-transfected B cells; assay type: cell-based, human; conditions: CTL lines from two healthy donors
# Description: as §2
# [5] = system: human myeloid leukemia cells; experiment: Cytotoxicity of peptide-elicited CTL lines against fresh myeloid leukemia marrow and normal marrow; assay type: cell-based
# [6] = as above; assay type: cell-based, human
# Description: (§3) PR1 specific CTL preferentially lyse human myeloid leukemia cells. It was next determined whether the PR1-specific CTL line was capable of lysing allogeneic human myeloid leukemia cells from HLA-A2.1 positive individuals. As controls, two cell lines expressing low levels of Pr3 were used: HLA-A2.1 transfected K562 cells and U937 cell line which lack HLA-A2.1 and would therefore be incapable of presenting peptides in an HLA-A2.1-restricted manner. Cryopreserved bone marrow cells from patients P1-P4, and marrow cells from a healthy normal volunteer (D2, a bone marrow donor for an allogeneic bone marrow transplant performed on patient P3) were thawed and used as targets for the PR1-specific CTL line.
# (§4) It was next determined whether the MY2 and MY4-specific CTL lines were capable of lysing allogeneic human myeloid leukemia cells from HLA-A2.1 positive individuals. The targets were BM cells from pre-transplant HLA-A2.1-positive AML patients. As controls, BM cells from HLA-A2.1-negative AML patients, BM from HLA-A2.1-positive healthy donors and two cell lines expressing low levels of MPO were used: HLA-A2.1 transfected K562 cells and the U937 cell line which lacks HLA-A2.1 and would therefore be incapable of presenting peptides in an HLA-A2.1-restricted manner.
# [7] = system: human myeloid leukemia cells; experiment: as above; assay type: cell-based; remark: listed apart in the source
# Description: as §3, §4
# HLA-A2.1 = HLA-A2.1 (Homo sapiens, UniProt P04439, D140Y/D185E/D98H/E176V/E277Q/G131W/G231S/I119V/I121R/I166T/I218V/L300P/L318F/N151K/N90K/P208A/P217A/Q86G/Q94H/R138H/R169H/T345S); experiment: HLA-A2.1 surface expression on peptide-coated T2 cells by indirect flow cytometry (BB7.2); assay type: binding; conditions: for surface HLA-A2.1 expression on peptide-pulsed T2 cells: compared with T2 cells with no added peptide / positive control influenza peptide; for Median Channel of Fluorescence of HLA-A2 Expression on T2: peptide-coated T2 cells, background HLA-A2 22
# [8] = system: patients with myeloid leukemia; experiment: Phase I/II PR1 peptide vaccine study; assay type: in vivo, human
# Experimental: PR1 peptide is injected subcutaneously in incomplete Freund's adjuvant every 3 weeks for 3 injections to induce a PR1 specific host response against the myeloid leukemia. […] Vaccination at 3 dose levels of peptide with a fixed amount of IFA will be conducted, and stopping criteria will be guided by established toxicity criteria.
# HLA-A2^+ patients with CML (interferon-resistant or relapsed after BMT), AML (smoldering relapse or ≧2nd CR) or MDS (RAEB or RAEBt) with no detectable antibodies to proteinase 3 (no detectable cANCA) were eligible. Patients that relapsed after BMT or those ineligible for BMT were also eligible for study. Pregnant patients, HIV+ patients, and those with known vasculitis were excluded. Patients were required to have immunosuppression (i.e. cyclosporine, steroids) discontinued 4 weeks prior to study entry.
# Secondarily, clinical responses were assessed by standard criteria with bone marrow biopsy, cytogenetic studies (standard chromosome banding) and molecular studies (PCR for bcr-abl or other known abnormalities such as t(15;17), inv16, etc.) 3 weeks after the last vaccination. Patients were seen and evaluated in clinic every 3 weeks during the study period. Both vialed PR1 peptide (NSC698102) and the adjuvant (Montanide ISA-51, NSC675756) were used in this study. […]
# T2 cells = experiment: Peptide-specific cytotoxicity of peptide-elicited CTL lines against peptide-loaded T2 cells; conditions: T2 cells loaded with the same peptide; 4-hr assay, varying E:T
# Experimental: CTL cytotoxicity assay. A semiautomated minicytotoxicity assay was used to determine specific lysis as described previously (Molldrem, 2000; Molldrem et al., 1996). Briefly, effector cells were prepared in doubling dilutions from 6×10^3 to 25×10^3 cells/well and were plated in 40 μl, 60-well Terasaki trays (Robbins Scientific, Sunnyvale, Calif., USA) with six replicates per dilution. Target cells (T2 cells, marrow-derived leukemic cells, or BM from a healthy donor) at a concentration of 2×10^6 cells/ml were stained with 10 μg/ml of Calcein-AM (Molecular Probes Inc.) for 60 min at 37° C. After washing three times in CM plus 10% AB, target cells were resuspended at 10^5 cells/ml, and 10^3 target cells in 10 μl medium were added to each well containing effector cells. Wells with target cells alone and medium alone were used for maximum (max) and minimum (min.) fluorescence emission, respectively. After 4 hr incubation at 37° C. in 5% CO2, 5 μl FluoroQuench (One Lambda Inc., Canoga Park, Calif., USA) was added to each well, and the trays were centrifuged for 1 min at 60 g before measurement of fluorescence using an automated CytoFluor II plate reader (PerSeptive Biosystems, Framingham, Mass., USA). The percentage of lysis was calculated as follows: % lysis={1−[(mean experimental mission−mean min.)/(mean max−mean min.)]}×100%.
# Induction of Primary CTL responses to peptides. These peptides were next used to stimulate T cells specific for peptide-coated targets. PBMC from a normal healthy donor heterozygous for HL-A2.1 were stimulated with peptide-pulsed T2 cells. […] Briefly, T2 cells (which co-express the costimulatory molecule B7.1) were washed 3 times in serum-free RPMI culture media supplemented with penicillin/streptomycin and glutamine (CM) and incubated with peptide at 20 μg/mL for 2 hr in CM. The peptide loaded T2 cells were then irradiated with 7500 cGy, washed once, and suspended with freshly isolated PBMC at a 1:1 ratio in CM supplemented with 10% human serum (HS) (Sigma, St. Louis, Mo.). After 7 days in culture, a second stimulation was performed and the following day, 60 IU/mL of recombinant human interleukin-2 (rhIL2) (Biosource International, Camarillo, Calif.) was added. After 14 days in culture a third stimulation was performed, followed on day 15 by addition of rhIL-2. A fourth stimulation was performed on day 21 followed on day 22 by the addition of rhIL2. After a total of 27 days in culture, the peptide-stimulated T cells were harvested and tested for peptide-specific cytotoxicity toward Calcein AM-labeled T2 cells, leukemia cell lines, and fresh human leukemia cells.
# The five MPO peptides discussed above, were used to stimulate T cells specific for peptide-coated targets. […]
# [9] = system: AML colony-forming units (CFU-GM); experiment: Colony inhibition assay with MY4 peptide-pulsed CTL; assay type: cell-based, human
# Description: In contrast there was no inhibition of CFUGM from normal marrow, D1 and D2, the corresponding HLA identical marrow donors for P1 and P2.
substance,measurement,setting,value
"CCNE1144-152: nonameric peptide derived from cyclin E1, predicted to bind to the HLA-A2 allele",FI peptide/FI PR1 (HLA-A2 stabilization on T2 cells),HLA-A2,1.008
same,donors in whom peptide-stimulated CTL lines killed peptide-pulsed T2 cells,peptide-pulsed T2 cells,3 of 7
same,CTL lines that killed HLA-A2 transfected K562 but not non-transfected K562,[1],one of 4
VLQELNVTV [PR1],apoptosis of high avidity PR1-CTL,[2],underwent apoptosis
same,apoptosis of low avidity PR1-CTL,[2]; high or low concentrations of PR1,did not undergo apoptosis
same,stimulation indices (SI) of PR1-specific CTL lines,[3],1.3 and 2.4
same,specific lysis by PR1 specific CTL,[4]; Pr3-transfected cells (clone 1.4),36%
same,lysis of negative control targets by PR1 specific CTL,"[4]; normal marrow cells, HL-60, HMy2.CIR with empty vector (CAT), non-transfected parent line",only background lysis
same,stimulation indices (SI) of PR1-specific CTL lines,NE-HMy.CIR-A2,1.5 and 2.1
same,lysis of CML #3 BM cells by CTL elicited with 0.2 μM PR1,"[5]; CTL from patient CML #1, E:T 20:1",24%±5%
same,lysis of CML #3 BM cells by CTL elicited with 0.2 μM PR1,"[5]; CTL from patient CML #2, E:T 20:1",33%±6%
same,"fold greater lysis of CML BM cells, CTL elicited with 0.2 μM vs 20 μM PR1","[5]; per cell basis, 4-hr cytotoxicity assay",~2 fold
same,lysis by PR1-specific CTL line,[6]; marrow cells from normal healthy donor (D2),< 20%
same,specific lysis by CTL specific for PR-1,"[7]; marrow cells from a patient with CML in blast crisis, E:T 25:1",73%
same,specific lysis by PR1-specific CTL line,"[7]; marrow cells of P1 (CML in chronic phase), E:T 6:1",53%
same,surface HLA-A2.1 expression on peptide-pulsed T2 cells,HLA-A2.1,increased surface HLA-A2.1 expression
same,Median Channel of Fluorescence of HLA-A2 Expression on T2,HLA-A2.1,294
same,PR1-specific CTL immunity elicited (by tetramer staining),"[8]; 0.25, 0.5 or 1.0 mg s.c. every 3 weeks for 3 injections",6 of 9
same,complete remissions,[8]; 9 patients (1 AML and 1 CML patient),2 patients
same,peptide-specific lysis by CTL line generated against the peptide,T2 cells,high specific lysis
RLFPDFFTRV [PR2],surface HLA-A2.1 expression on peptide-pulsed T2 cells,HLA-A2.1,increased surface HLA-A2.1 expression
same,Median Channel of Fluorescence of HLA-A2 Expression on T2,HLA-A2.1,273
same,peptide-specific lysis by CTL line generated against the peptide,T2 cells,did not demonstrate any significant cytotoxicity
KLLLALAGL [MY2],specific lysis of HLA-A2+ normal BMC by peptide-specific CTL,[6],45%
same,lysis by MY2-specific CTL lines,"[6]; marrow cells from HLA-A2.1-positive normal healthy donor, E:T 20:1",43%
same,lysis of HLA-A2.1-positive AML marrow cells by peptide-specific CTL,[7],readily lysed
same,peptide-specific lysis by CTL line generated against the peptide,T2 cells,high specific lysis
KLNDILLIQL [PR71],surface HLA-A2.1 expression on peptide-pulsed T2 cells,HLA-A2.1,strong peptide binding
KLNDVLLIQL [PR7V],surface HLA-A2.1 expression on peptide-pulsed T2 cells,HLA-A2.1,strong peptide binding
"CCNE2144-152: nonameric peptide derived from cyclin E2, predicted to bind to the HLA-A2 allele (ILLDWLLEV)",FI peptide/FI PR1 (HLA-A2 stabilization on T2 cells),HLA-A2,1.189
same,donors in whom peptide-stimulated CTL lines killed peptide-pulsed T2 cells,peptide-pulsed T2 cells,4 of 7
RLFEQVMRI [MY4],inhibition of CFU-GM by MY4 peptide-pulsed CTL,"[9]; normal marrow, D1 and D2 (HLA identical donors)",no inhibition
same,inhibition of CFU-GM by MY4 peptide-pulsed CTL (CTL1),[9]; patient P1 (M2-AML),63%
same,inhibition of CFU-GM by MY4 peptide-pulsed CTL (CTL1),[9]; patient P2 (M4-AML),34%
same,specific lysis of HLA-A2+ normal BMC by peptide-specific CTL,[6],no lysis of normal BMC
same,lysis of HLA-A2.1-positive AML marrow cells by peptide-specific CTL,[7],"killed AML cells, but not normal cells"
same,peptide-specific lysis by CTL line generated against the peptide,T2 cells,tested similarly
"Influenza nucleoprotein: control influenza peptide, Influenza B nucleoprotein (aa 85-94), known high binding affinity to HLA-A2.1 (KLGEFYNQMM) [reference compound]",apoptosis of high avidity PR1-CTL,[2],no apoptosis was observed
same,Median Channel of Fluorescence of HLA-A2 Expression on T2,HLA-A2.1,194
